One assay deals with HT-29 cells. Kind of assay: HT-29 cell necrosis/necroptosis inhibition (TNF-α + SMAC mimetic + zVAD-FMK; CellTiter-Glo cell viability). To be noted: HT-29 cells, TNF-α 10 ng/ml + SMAC mimetic 6 μM + zVAD-FMK 10 μM, 20 hours; geometric mean, 10 points in duplicate; read-out: EC50 (Cell activity; Necrosis/Necroptosis Inhibitory Activity, Compounds 143-323). It is filed as cell-based. The essentials:
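Necroptosis was driven by TNF-α 10 ng/ml plus SMAC mimetic 6 μM and zVAD-FMK 10 μM in serum-free medium, with compounds as a 10-point threefold titration. After 20 h at 37 °C, ATP-based luminescence was read; EC50 values are geometric means of duplicate curves.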
Consider `Cc1nc(C)n(-c2nc(N3CCN(C(=O)N4N=CCC4c4cnc(C)s4)CC3)ncc2F)n1` (stereo not shown) [Compound 214, (4-(4-(3,5-dimethyl-1H-1,2,4-triazol-1-yl)-5-fluoropyrimidin-2-yl)piperazin-1-yl)(5-(2-methylthiazol-5-yl)-4,5-dihydro-1H-pyrazol-1-yl)methanone], for which the EC50 lay within 0.1 to 100 nM.

The assay is the same for the next values; noted with them: Homo sapiens, HT-29, 20 h, read-out: EC50 (Cell activity; Necrosis/Necroptosis Inhibitory Activity, Compounds 1-142).
As to `Cc1nn(CC#N)c(C)c1-c1nc(N2CCN(C(=O)N3N=CC[C@H]3c3cc(F)cc(C#N)c3)CC2)ncc1F` [Compound 136, (S)-3-(1-(4-(4-(1-(cyanomethyl)-3,5-dimethyl-1H-pyrazol-4-yl)-5-fluoropyrimidin-2-yl)piperazine-1-carbonyl)-4,5-dihydro-1H-pyrazol-5-yl)-5-fluorobenzonitrile], the EC50 lay within 0.1 to 100 nM.

Staying with this assay, now noted: Homo sapiens, HT-29, 20 h, read-out: EC50 (Cell activity; Necrosis/Necroptosis Inhibitory Activity, Compounds 143-323).
Consider `Cc1nc(C(=O)N2CCC2)nn1-c1nc(N2CCN(C(=O)N3N=CC[C@H]3c3cc(F)cc(C#N)c3)CC2)ncc1F` [Compound 247, (S)-3-(1-(4-(4-(3-(azetidine-1-carbonyl)-5-methyl-1H-1,2,4-triazol-1-yl)-5-fluoropyrimidin-2-yl)piperazine-1-carbonyl)-4,5-dihydro-1H-pyrazol-5-yl)-5-fluorobenzonitrile], for which the EC50 was 0.1 to 100 nM.

Staying with this assay, now noted: Homo sapiens; HT-29 cells, TNF-α 10 ng/ml + SMAC mimetic 6 μM + zVAD-FMK 10 μM, 20 hours; geometric mean, 10 points in duplicate; read-out: EC50 (Cell activity; Necrosis/Necroptosis Inhibitory Activity, Compounds 1-142).
On to `Cc1cnn(C)c1-c1nc(N2CCN(C(=O)N3N=CC[C@H]3c3cc(F)cc(F)c3)CC2)ncc1F` [Compound 61, (S)-(5-(3,5-difluorophenyl)-4,5-dihydro-1H-pyrazol-1-yl)(4-(4-(1,4-dimethyl-1H-pyrazol-5-yl)-5-fluoropyrimidin-2-yl)piperazin-1-yl)methanone], for which the EC50 lay in the range of 0.1 to 100 nM.

For `Cn1cc(-c2nc(N3CCN(C(=O)N4N=CC[C@H]4c4cc(F)cc(C#N)c4)CC3)ncc2F)nn1` [Compound 40], the concentration for a half-maximal effect (EC50) lay within 0.1 to 100 nM. Same read-out and setting: the value for `Cc1ncc(-c2nc(N3CCN(C(=O)N4N=CC[C@H]4c4cc(F)cc(C#N)c4)CC3)ncc2F)s1` [Compound 57, (S)-3-fluoro-5-(1-(4-(5-fluoro-4-(2-methylthiazol-5-yl)pyrimidin-2-yl)piperazine-1-carbonyl)-4,5-dihydro-1H-pyrazol-5-yl)benzonitrile] was 0.1 to 100 nM; that for `Cc1nnnn1-c1nc(N2CCN(C(=O)N3N=CC[C@H]3c3cc(F)cc(C#N)c3)CC2)ncc1F` [Compound 59, (S)-3-fluoro-5-(1-(4-(5-fluoro-4-(5-methyl-1H-tetrazol-1-yl)pyrimidin-2-yl)piperazine-1-carbonyl)-4,5-dihydro-1H-pyrazol-5-yl)benzonitrile] was 0.1 to 100 nM.

For the molecule `Cc1nnn(C)c1-c1nc(N2CCN(C(=O)N3N=CC[C@H]3c3cc(F)cc(F)c3)CC2)ncc1F` [Compound 71, (S)-(5-(3,5-difluorophenyl)-4,5-dihydro-1H-pyrazol-1-yl)(4-(4-(1,4-dimethyl-1H-1,2,3-triazol-5-yl)-5-fluoropyrimidin-2-yl)piperazin-1-yl)methanone], the concentration for a half-maximal effect (EC50) fell in the range of 0.1 to 100 nM. Same read-out and setting: the value for `O=C(N1CCN(c2nccc(-c3nnn[nH]3)n2)CC1)N1N=CC[C@H]1c1cc(F)cc(F)c1` [Compound 4, (S)-(4-(4-(1H-tetrazol-5-yl)pyrimidin-2-yl)piperazin-1-yl)(5-(3,5-difluorophenyl)-4,5-dihydro-1H-pyrazol-1-yl)methanone] was 0.1 to 100 nM. On the same count and under the same terms, the value for `Cn1nc(CO)nc1-c1nc(N2CCN(C(=O)N3N=CC[C@H]3c3cc(F)cc(C#N)c3)CC2)ncc1F` [Compound 72, (S)-3-fluoro-5-(1-(4-(5-fluoro-4-(3-(hydroxymethyl)-1-methyl-1H-1,2,4-triazol-5-yl)pyrimidin-2-yl)piperazine-1-carbonyl)-4,5-dihydro-1H-pyrazol-5-yl)benzonitrile] was 0.1 to 100 nM; that for `Cc1nn(CC2COC2)c(C)c1-c1nc(N2CCN(C(=O)N3N=CC[C@H]3c3cc(F)cc(C#N)c3)CC2)ncc1F` [Compound 135, (S)-3-(1-(4-(4-(3,5-dimethyl-1-(oxetan-3-ylmethyl)-1H-pyrazol-4-yl)-5-fluoropyrimidin-2-yl)piperazine-1-carbonyl)-4,5-dihydro-1H-pyrazol-5-yl) fluorobenzonitrile] was 0.1 to 100 nM; that for `Cc1nn(CCO)c(C)c1-c1nc(N2CCN(C(=O)N3N=CC[C@H]3c3cc(F)cc(C#N)c3)CC2)ncc1F` [Compound 124, (S)-3-fluoro-5-(1-(4-(5-fluoro-4-(1-(2-hydroxyethyl)-3,5-dimethyl-1H-pyrazol-4-yl)pyrimidin-2-yl)piperazine-1-carbonyl)-4,5-dihydro-1H-pyrazol-5-yl)benzonitrile] was 0.1 to 100 nM. Take `O=C(N1CCN(c2ncc(F)c(-c3cnn(CCO)c3)n2)CC1)N1N=CC[C@H]1c1cc(F)cc(F)c1` [Compound 60, (S)-(5-(3,5-difluorophenyl)-4,5-dihydro-1H-pyrazol-1-yl)(4-(5-fluoro-4-(1-(2-hydroxyethyl)-1H-pyrazol-4-yl)pyrimidin-2-yl)piperazin-1-yl)methanone]: the EC50 fell in the range of 0.1 to 100 nM.

The assay is the same for the next values; noted with them: Homo sapiens; HT-29 cells, TNF-α 10 ng/ml + SMAC mimetic 6 μM + zVAD-FMK 10 μM, 20 hours; geometric mean, 10 points in duplicate; read-out: EC50 (Cell activity; Necrosis/Necroptosis Inhibitory Activity, Compounds 143-323).
For the molecule `COc1cnc(N2CCN(C(=O)N3N=CC[C@H]3c3cc(F)cc(C#N)c3)CC2)nc1-c1ncnn1C` [Compound 150, (S)-3-fluoro-5-(1-(4-(5-methoxy-4-(1-methyl-1H-1,2,4-triazol-5-yl)pyrimidin-2-yl)piperazine-1-carbonyl)-4,5-dihydro-1H-pyrazol-5-yl)benzonitrile], the EC50 is 0.1 to 100 nM.

With `Cc1nc(C2CC=NN2C(=O)N2CCN(c3cc(-c4c(C)cnn4C)ncc3F)CC2)cs1` (stereo not shown) [Compound 156, (4-(2-(1,4-dimethyl-1H-pyrazol-5-yl)-5-fluoropyridin-4-yl)piperazin-1-yl)(5-(2-methylthiazol-4-yl)-4,5-dihydro-1H-pyrazol-1-yl)methanone], the EC50 is 100 to 1000 nM.

As for `Cc1nc(C)n(-c2nccc(N3CCN(C(=O)N4N=CC[C@H]4c4cc(F)cc(C#N)c4)CC3)n2)n1` [Compound 244, (S)-3-(1-(4-(2-(3,5-dimethyl-1H-1,2,4-triazol-1-yl)pyrimidin-4-yl)piperazine-1-carbonyl)-4,5-dihydro-1H-pyrazol-5-yl)-5-fluorobenzonitrile], the concentration for a half-maximal effect (EC50) lay within 0.1 to 100 nM. With `CCn1nc(C)n(-c2nc(N3CCN(C(=O)N4N=CC[C@H]4c4cc(F)cc(F)c4)CC3)ncc2F)c1=O` [Compound 182, (S)-4-(2-(4-(5-(3,5-difluorophenyl)-4,5-dihydro-1H-pyrazole-1-carbonyl)piperazin-1-yl)-5-fluoropyrimidin-4-yl)-2-ethyl-5-methyl-2,4-dihydro-3H-1,2,4-triazol-3-one], the EC50 lay in the range of 0.1 to 100 nM. In the case of `O=C(N1CCN(c2ncc(F)c(-n3cnc(C(F)(F)F)n3)n2)CC1)N1N=CC[C@H]1c1cccc(F)c1` [Compound 313, (S)-(4-(5-fluoro-4-(3-(trifluoromethyl)-1H-1,2,4-triazol-1-yl)pyrimidin-2-yl)piperazin-1-yl)(5-(3-fluorophenyl)-4,5-dihydro-1H-pyrazol-1-yl)methanone], the EC50 lay in the range of 0.1 to 100 nM.

Take `Cc1nn(-c2cc(N3CCN(C(=O)N4N=CC[C@H]4c4cc(F)cc(C#N)c4)CC3)ncn2)c(C)c1C#N` [Compound 279, (S)-1-(6-(4-(5-(3-cyano-5-fluorophenyl)-4,5-dihydro-1H-pyrazole-1-carbonyl)piperazin-1-yl)pyrimidin-4-yl)-3,5-dimethyl-1H-pyrazole-4-carbonitrile]: the EC50 was 0.1 to 100 nM. Consider `Cn1nc(CO)nc1-c1nc(N2CCN(C(=O)N3N=CCC3c3cc(F)cc(F)c3)CC2)ncc1F` (stereo not shown) [Compound 227, (5-(3,5-difluorophenyl)-4,5-dihydro-1H-pyrazol-1-yl)(4-(5-fluoro-4-(3-(hydroxymethyl)-1-methyl-1H-1,2,4-triazol-5-yl)pyrimidin-2-yl)piperazin-1-yl)methanone], for which the EC50 fell in the range of 0.1 to 100 nM. In the case of `Cc1nc(C)n(-c2nc(N3CCN(C(=O)N4N=CCC4c4ncc(C)s4)CC3)ncc2F)n1` (stereo not shown) [Compound 216, (4-(4-(3,5-dimethyl-1H-1,2,4-triazol-1-yl)-5-fluoropyrimidin-2-yl)piperazin-1-yl)(5-(5-methylthiazol-2-yl)-4,5-dihydro-1H-pyrazol-1-yl)methanone], the EC50 is 0.1 to 100 nM. On the same count and under the same terms, the value for `Cc1nn(-c2cc(N3CCN(C(=O)N4N=CC[C@H]4c4cncc(F)c4)CC3)ncn2)c(C)c1Cl` [Compound 290, (S)-(4-(6-(4-chloro-3,5-dimethyl-1H-pyrazol-1-yl)pyrimidin-4-yl)piperazin-1-yl)(5-(5-fluoropyridin-3-yl)-4,5-dihydro-1H-pyrazol-1-yl)methanone] was 0.1 to 100 nM; that for `Cc1csc(C2CC=NN2C(=O)N2CCN(c3nc(-c4c(C)cnn4C)ncc3F)CC2)n1` (stereo not shown) [Compound 161, (4-(2-(1,4-dimethyl-1H-pyrazol-5-yl)-5-fluoropyrimidin-4-yl)piperazinyl)(5-(4-methylthiazol-2-yl)-4,5-dihydro-1H-pyrazol-1-yl)methanone] was 0.1 to 100 nM.

For `Cc1nc(C)n(-c2nc(N3CCN(C(=O)N4N=CCC4c4cnc(C)s4)CC3)ncc2F)n1` (stereo not shown) [Compound 291, (4-(4-(3,5-dimethyl-1H-1,2,4-triazol-1-yl)-5-fluoropyrimidin-2-yl)piperazin-1-yl)(5-(2-methylthiazol-5-yl)-4,5-dihydro-1H-pyrazol-1-yl)methanone], the EC50 was 0.1 to 100 nM.

Turning to `Cc1cnn(C)c1-c1ncc(F)c(N2CCN(C(=O)N3N=CCC3c3cncs3)CC2)n1` (stereo not shown) [Compound 159, (4-(2-(1,4-dimethyl-1H-pyrazol-5-yl)-5-fluoropyrimidin-4-yl)piperazin-1-yl)(5-(thiazol-5-yl)-4,5-dihydro-1H-pyrazol-1-yl)methanone], the EC50 was in the range of 0.1 to 100 nM.

The values are drawn from US12454529B2, “Piperazine cyclic ureas” (SIRONAX LTD., priority 2020, dated 2025).
